ChEMBL document CHEMBL1143621, “Identification and structure-activity relationship of phenolic acyl hydrazones as selective agonists for the estrogen-related orphan nuclear receptors ERRbeta and ERRgamma” (J Med Chem, 2005)

What follows are compounds tested against T1, Estrogen-related receptor gamma (Homo sapiens, UniProt P62508) (assay: Inhibition of [3H]4-OHT binding to Estrogen-Related Receptor gamma).
T1 sequence (P62508 whole entry): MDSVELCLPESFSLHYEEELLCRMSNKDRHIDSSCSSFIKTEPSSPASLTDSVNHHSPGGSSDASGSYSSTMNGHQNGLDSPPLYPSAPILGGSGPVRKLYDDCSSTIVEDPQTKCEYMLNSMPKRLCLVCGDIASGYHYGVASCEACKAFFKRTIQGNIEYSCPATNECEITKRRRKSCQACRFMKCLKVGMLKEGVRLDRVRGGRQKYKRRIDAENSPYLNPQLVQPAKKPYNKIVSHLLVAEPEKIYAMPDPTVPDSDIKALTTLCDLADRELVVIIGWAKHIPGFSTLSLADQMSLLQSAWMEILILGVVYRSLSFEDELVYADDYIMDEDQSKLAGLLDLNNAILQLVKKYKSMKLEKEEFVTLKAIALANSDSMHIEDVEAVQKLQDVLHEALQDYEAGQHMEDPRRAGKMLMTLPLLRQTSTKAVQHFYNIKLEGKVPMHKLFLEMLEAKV

| Compound | IC50 [nM] |
| --- | --- |
| CCN(CC)c1ccc(/C=N/NC(=O)c2ccc(O)cc2)cc1 | 660 |

These compounds were tested against T1, Estrogen-related receptor gamma (assay: Estrogen-Related Receptor gamma activity in FRET assay).
Assay type: functional; call rule not given here

| Compound | EC50 [nM] |
| --- | --- |
| CCN(CC)c1ccc(/C=N/NC(=O)c2ccc(N)cc2)cc1 | 630 |
| CCN(CC)c1ccc(/C=N/NC(=O)c2ccc(O)cc2)cc1 | 130 |
| CCN(CC)c1ccc(/C(C)=N/NC(=O)c2ccc(O)cc2)cc1 | 500 |
| CCN(CC)c1ccc(/C=N/NC(=O)c2ccccc2)cc1 | 1600 |

The compounds below were run against T1, Estrogen-related receptor gamma (assay: Estrogen-Related Receptor gamma activity in FRET assay; i.a.=inactive at 3 uM).
Assay type: functional

| Compound | EC50 |
| --- | --- |
| CCN(CC)c1ccc(/C=N/NC(=O)c2ccc(O)cc2)c(O)c1 | Not Active |
| CCN(CC)c1ccc(/C=N/NS(=O)(=O)c2ccc(O)cc2)cc1 | Not Active |
| CC(C)(C)Oc1ccc(/C=N/NC(=O)c2ccc(O)cc2)cc1 | Not Active |
| CCN(CC)c1ccc(/C=N/NC(=O)c2ccc(F)cc2)cc1 | Not Active |
| CC(C)c1ccc(C(=O)NNC(=O)c2ccc(O)cc2)cc1 | Not Active |
